{
  "source": "patent US12275685B2",
  "about": "“Oligo-benzamide analogs and their use in cancer treatment” (Board of Regents, The University of Texas System, priority 2018, dated 2025)",
  "key": {"[1]": {"test_system": "BC cells expressing MT-ERα (MCF-7, ZR-75, T47-D)", "test": "Cell titer glo antiproliferative assay in MT-ERα BC cells", "format": "cell-based", "details": "T47-D Y537S MT", "source_text": "FIG. 52: Comparative efficacy of TX-542 and SERDs in BC cells expressing WT and/or MT ERα: Using CRISPR-Cas9, both copies of WT ERα genes were knocked out in ZR-75 and T47-D, while only one copy of WT Era was knocked out in MCF-7 cells. Following knockout of WT ERα clones with stable expression of either Y537S ERα MT or the D538G ERα MT were selected. […] ERα-negative TNBC cells (SUM-159 and MDA-MB-231) were used as controls. Dose response curves were generated for ERX-11, TX-542 and SERDs using cell titer glo assays. IC50 values for each cell line and drug were calculated and tabulated. Tam=tamoxifen, ICI=fulvestrant, GDC-0810=Genentech SERD, AZD-9496 Astra Zeneca SERD, RAD-1901=Radius SERD, Palbo=Palbociclib. IC50 values<50 nM are shown in red.\nTX-542. TX-542 was potent (IC50˜20-50 nM) as an antiproliferative agent against expressing MT-ERα, both in genetically modified MCF-7 cells with one WT-ERα allele and one MT-ERα allele introduced by CRISPR and genetically modified ZR-75 or T47-D cells in which both copies of WT-ERα alleles were replaced using CRISPR with MT-ERα. TX-542 had no activity against ER-null (SUM-159 or MDA-MB-231 cells) or non-tumorigenic breast epithelial cells, such as human mammary epithelial cells (HMEC). […] In addition, these agents are not able to consistently target all the MT-ERα forms in distinct genetic contexts, as shown in FIG. 52 and as reported by others."}, "MCF-7 MT-ERα Y537S cells": {"test_system": "MCF-7 MT-ERα Y537S cells", "format": "cell-based", "details": "200 nM"}, "ZR-75 MT-ERα cells": {"test_system": "ZR-75 MT-ERα cells", "test": "Colony formation, ZR-75 MT-ERα", "format": "cell-based", "experimental": "The 200 nM dose for these drugs reflects the level at which each of these drugs has a significant effect on spheroid formation in the MCF-7 WT-ERa cells. Taken together, these studies indicate that TX-542 has significant activity against both WT-ERα and MT-ERα driven ERα+ BC cell lines and is a worthwhile candidate for further study."}, "[2]": {"test_system": "MCF-7 MT-ERα Y537S and D538G cells", "format": "cell-based", "details": "comparators at 200 nM in MCF-7 MT-ERα Y537S cells"}, "OCa cells": {"test_system": "OCa cells", "test": "MTT assay in OCa cells", "format": "cell-based", "experimental": "FIGS. 12A-12D show the effect of TK208 against ovarian cancer cell lines ES2 (FIGS. 12A & 12B) and SKOV3 (FIGS. 12C & 12D).\nFIGS. 42A-D: OCa cells were treated with ERX-11 (FIG. 42A) or ERX-208 (FIG. 42B). Primary OCa cells derived from ascites were treated with ERX-208 for 72 h (FIG. 42C) and cell viability by MTT assays. (FIG. 42D) Effect of ERX-208 on viability of IOSE cells was measured using MTT assays and TOV21G was used as +ve control.\nERX-208. […] Functionally, ERX-208 causes growth inhibition of OCa cells, as noted by MTT assays using five established OCa cells (ES2, SKOV3, A2780, TOV21G, TOV112D) and five primary OCa cells derived from HGSOC patient ascites (AS21, AS23, AS25, AS28, AS29) (FIGS. 42B-C). […] The inventor noted an IC50 of ˜50-100 nM for ERX-208 both for inducing ERS and in reducing the growth of OCa cells."}, "MT-ERα [3]": {"test_system": "MT-ERα", "test": "MT-ERα protein levels", "format": "cell-based"}, "ovarian cancer cells": {"test_system": "ovarian cancer cells", "test": "Growth inhibition of ovarian cancer cells", "format": "cell-based", "source_text": "FIGS. 10A & 10B show effects of TK208 against cancer cells.\n(§1) In addition, another tris-benzmaide compound TK208 was synthesized and tested against breast cancer and ovarian cancer cell lines (FIGS. 10-15). […] These compounds (e.g., TK41, TK208, TK308 (FIG. 21), TK309 (FIG. 22), TK314, TK315) are extremely potent compounds that inhibit tumor growth and kill breast and ovarian cancer cells and as such, they are superb therapeutic candidates for such diseases."}, "breast cancer cells": {"test_system": "breast cancer cells", "test": "Growth inhibition of breast cancer cells", "format": "cell-based", "details": "relative to ovarian cancer cells", "source_text": "as §1"}, "[4]": {"test_system": "WT- and MT-ERα-driven cell lines (MCF-7, ZR-75)", "test": "Anti-proliferative activity in WT- and MT-ERα-driven cell lines", "format": "cell-based"}, "MT-ERα [5]": {"test_system": "MT-ERα", "test": "RNA sequencing of MT-ERα transcriptional programme", "format": "cell-based", "details": "MCF-7 and ZR-75 cells expressing D538G and Y537S MT-ERα", "source_text": "FIGS. 66A-D: (FIG. 66A) Effect of ERX-315 on ERa DNA binding on the promoters of 5 canonical ERα-regulated genes with ERa ChIP in MCF-7 expressing D538G MT-ERα in the absence and presence of estradiol.\nPrior studies have shown that MT-ERα drives a canonical ERα transcriptional programme, both in the absence and presence of estradiol. RNA sequencing studies indicate that ERX-315 alters the transcriptional heatmap in MCF-7 and ZR-75 cells expressing D538G and Y537S MT-ERα (FIG. 66B, data shown for MCF-7 cells expressing D538G MT-ERα)."}, "vitamin D receptor (VDR)": {"molecular_target": "T1, vitamin D receptor (VDR) (Homo sapiens, UniProt P11473)", "T1 construct": "endogenous in cells; host or cells: cancer cells", "test": "Vitamin D receptor inhibition", "format": "cell-based"}, "ERα": {"molecular_target": "ERα (Homo sapiens, UniProt P03372)", "sequence (P03372 whole entry)": "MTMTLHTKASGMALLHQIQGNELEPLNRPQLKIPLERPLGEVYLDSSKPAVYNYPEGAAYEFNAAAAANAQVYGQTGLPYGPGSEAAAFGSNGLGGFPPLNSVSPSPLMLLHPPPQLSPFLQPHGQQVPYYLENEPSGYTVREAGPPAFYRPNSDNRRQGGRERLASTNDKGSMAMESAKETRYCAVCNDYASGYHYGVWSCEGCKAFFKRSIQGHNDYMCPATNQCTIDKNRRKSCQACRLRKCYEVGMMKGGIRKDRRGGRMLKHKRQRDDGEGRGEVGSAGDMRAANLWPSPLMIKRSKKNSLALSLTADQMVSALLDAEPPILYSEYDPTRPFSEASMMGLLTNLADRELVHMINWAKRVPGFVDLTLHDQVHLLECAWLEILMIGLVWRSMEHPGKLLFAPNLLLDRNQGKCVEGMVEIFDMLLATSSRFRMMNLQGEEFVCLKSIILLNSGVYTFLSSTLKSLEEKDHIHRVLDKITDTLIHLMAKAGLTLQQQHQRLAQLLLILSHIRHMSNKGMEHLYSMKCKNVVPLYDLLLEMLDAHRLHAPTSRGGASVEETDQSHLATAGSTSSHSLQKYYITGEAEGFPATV", "format": "cell-based", "details": "WT-ERα"}, "lipase activity of LIPA": {"molecular_target": "T2, lipase activity of LIPA (Homo sapiens, UniProt P38571)", "T2 construct": "lipase activity of parental SUM-159 (WT) and SUM-159 cells with LIPA KO; endogenous in cells; host or cells: SUM-159 (parental)", "T2 sequence (P38571 77-399)": "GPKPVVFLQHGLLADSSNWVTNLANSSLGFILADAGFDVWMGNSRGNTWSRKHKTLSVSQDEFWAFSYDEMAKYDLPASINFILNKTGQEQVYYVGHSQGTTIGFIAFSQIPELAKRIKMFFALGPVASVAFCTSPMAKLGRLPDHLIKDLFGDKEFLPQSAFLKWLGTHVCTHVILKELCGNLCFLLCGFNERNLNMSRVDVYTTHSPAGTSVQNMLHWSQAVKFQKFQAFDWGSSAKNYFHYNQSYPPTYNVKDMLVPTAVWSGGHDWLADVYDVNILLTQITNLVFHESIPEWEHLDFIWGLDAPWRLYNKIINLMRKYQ", "test": "Lipase activity assay", "format": "biochemical", "details": "SUM-159 cells", "source_text": "FIGS. 39A-N: (FIGS. 39A-E) Predicted binding mode of ERX-41 (colored in green) on the human lysosomal acid lipase (LAL, PDB code: 6V7N, LXXLL (SEQ ID NO: 1) domain colored in orange). (FIG. 39F) PDB structure of LAL protein showing relative positions of the catalytic domain (with H274Y MT) and the LXXLL (SEQ ID NO: 1) domain (L242P MT). (FIG. 39G) Evaluation of the effect of ERX-41 and lalistat (known lipase inhibitor) on lipase activity of parental SUM-159 (WT) and SUM-159 cells with LIPA KO. (FIG. 39H) Evaluation of basal lipase activity in parental SUM-159 (WT), SUM-159 cells with LIPA KO (KO), SUM-159 cells with LIPA KO and with reconstitution of either WT LIPA (KO+WT), H274Y MT-LIPA (KO+H274Y), DLXXLL (SEQ ID NO: 2) MT-LIPA (KO+DLXXLL (SEQ ID NO: 2)) or L242P MT-LIPA (KO+L242P). Protein expression of LAL and control vinculin in these cells are shown below (FIG. 391) Cellular lysates from described SUM-159 cells were incubated with biotinylated ERX-11 or biotinylated ERX-41 and then subject to a streptavidin column. Elutants were then evaluated for LIPA pulldown by western blotting. (FIG. 39J) Dose response curve to increasing concentrations of ERX-41 in described SUM-159 cells. (FIGS. 39K-M) Effect of vehicle or 1 μM ERX-41 on induction of UPR genes at the protein level (FIG. 39K) or RNA level (FIGS. 39L-M). […]"}},
  "data": [
    {"smiles": "C[C@@H]1Cc2c([nH]c3ccccc23)[C@@H](c2c(F)cc(/C=C/C(=O)O)cc2F)N1CC(C)(C)F", "note": "[AZD-9496]", "values": [
      {"measurement": "activity against T47-D Y537S MT", "setting": "[1]", "value": "potent activity"},
      {"measurement": "soft agar colony formation", "setting": "MCF-7 MT-ERα Y537S cells", "value": "significantly affected colony formation"},
      {"measurement": "colony formation in ZR-75 MT-ERα cells", "setting": "ZR-75 MT-ERα cells", "value": "activity was not seen"},
      {"measurement": "spheroid size or architecture", "setting": "[2]", "value": "neither ERX-11, palbociclib, GDC-0810 nor AZD-9496, tamoxifen nor fulvestrant (at 200 nM) significantly disrupted spheroid size or architecture"}
    ]},
    {"smiles": "CC(C)COc1cc(C(N)=O)ccc1NC(=O)c1ccc(NC(=O)c2ccc([N+](=O)[O-])c(OCCO)c2)c(OCC(C)C)c1", "note": "[ERX-11, reference compound]", "values": [
      {"measurement": "activity against OCa cells / cell viability", "setting": "OCa cells", "value": "limited activity"},
      {"measurement": "soft agar colony formation", "setting": "MCF-7 MT-ERα Y537S cells", "value": "neither the parental ERX-11, tamoxifen nor GDC0810 SERD (at the same concentrations) had an effect on colony formation"},
      {"measurement": "spheroid size or architecture", "setting": "[2]", "value": "neither ERX-11, palbociclib, GDC-0810 nor AZD-9496, tamoxifen nor fulvestrant (at 200 nM) significantly disrupted spheroid size or architecture"}
    ]},
    {"smiles": "CC/C(=C(/c1ccc(/C=C/C(=O)O)cc1)c1ccc2[nH]ncc2c1)c1ccc(F)cc1Cl", "note": "[GDC-0810]", "values": [
      {"measurement": "soft agar colony formation", "setting": "MCF-7 MT-ERα Y537S cells", "value": "neither the parental ERX-11, tamoxifen nor GDC0810 SERD (at the same concentrations) had an effect on colony formation"},
      {"measurement": "spheroid size or architecture", "setting": "[2]", "value": "neither ERX-11, palbociclib, GDC-0810 nor AZD-9496, tamoxifen nor fulvestrant (at 200 nM) significantly disrupted spheroid size or architecture"},
      {"measurement": "ability to decrease MT-ERα protein levels", "setting": "MT-ERα [3]", "value": "neither fulvestrant nor GDC-0810 were able to decrease MT-ERα protein levels"}
    ]},
    {"smiles": "CC(C)COc1cc(C(=O)Nc2ccc(C(=O)N[C@H]3CC[C@H](C)CC3)cc2OCC(C)C)ccc1NC(=O)c1ccc(F)c(OCCO)c1", "note": "[TK314]", "values": [
      {"measurement": "IC50", "setting": "ovarian cancer cells", "value": "10 to 50", "unit": "nM"},
      {"measurement": "activity against ovarian cancer cells", "setting": "ovarian cancer cells", "value": "unique activity against ovarian cancer cells"},
      {"measurement": "activity against breast cancer cells", "setting": "breast cancer cells", "value": "significantly less activity against breast cancer cells"},
      {"measurement": "IC50", "setting": "[4]", "value": "1500 to 5000", "unit": "nM"},
      {"measurement": "MT-ERα transcriptional programme", "setting": "MT-ERα [5]", "value": "neither tamoxifen nor ERX-314 is able to alter the ERα-regulated transcriptome"}
    ]},
    {"smiles": "CC(C)COc1cc(C(=O)Nc2ncc[nH]2)ccc1NC(=O)c1ccc(NC(=O)c2ccc([N+](=O)[O-])c(OCCO)c2)c(OCC(C)C)c1", "note": "[YL144]", "values": [
      {"measurement": "inhibition of VDR", "setting": "vitamin D receptor (VDR)", "value": "high potency"}
    ]},
    {"smiles": "C[C@]12CC[C@@H]3c4ccc(O)cc4C[C@@H](CCCCCCCCC[S+]([O-])CCCC(F)(F)C(F)(F)F)[C@H]3[C@@H]1CC[C@@H]2O", "note": "(stereo partly shown) [fulvestrant]", "values": [
      {"measurement": "soft agar colony formation", "setting": "MCF-7 MT-ERα Y537S cells", "value": "significantly affected colony formation"},
      {"measurement": "colony formation in ZR-75 MT-ERα cells", "setting": "ZR-75 MT-ERα cells", "value": "activity was not seen"},
      {"measurement": "spheroid size or architecture", "setting": "[2]", "value": "neither ERX-11, palbociclib, GDC-0810 nor AZD-9496, tamoxifen nor fulvestrant (at 200 nM) significantly disrupted spheroid size or architecture"},
      {"measurement": "time to WT-ERα degradation", "setting": "ERα", "value": "≤ 4", "unit": "h"},
      {"measurement": "ability to decrease MT-ERα protein levels", "setting": "MT-ERα [3]", "value": "neither fulvestrant nor GDC-0810 were able to decrease MT-ERα protein levels"}
    ]},
    {"smiles": "O=C(Oc1nsnc1N1CCCCC1)N1CCCCC1", "note": "[lalistat, reference compound]", "values": [
      {"measurement": "effect on lipase activity of LIPA", "setting": "lipase activity of LIPA", "value": "attenuated lipase activity"}
    ]},
    {"smiles": "CC/C(=C(\\c1ccccc1)c1ccc(OCCN(C)C)cc1)c1ccccc1", "note": "[tamoxifen]", "values": [
      {"measurement": "soft agar colony formation", "setting": "MCF-7 MT-ERα Y537S cells", "value": "neither the parental ERX-11, tamoxifen nor GDC0810 SERD (at the same concentrations) had an effect on colony formation"},
      {"measurement": "spheroid size or architecture", "setting": "[2]", "value": "neither ERX-11, palbociclib, GDC-0810 nor AZD-9496, tamoxifen nor fulvestrant (at 200 nM) significantly disrupted spheroid size or architecture"},
      {"measurement": "MT-ERα transcriptional programme", "setting": "MT-ERα [5]", "value": "neither tamoxifen nor ERX-314 is able to alter the ERα-regulated transcriptome"}
    ]}
  ]
}
